Test results taken from US20100311729A1, “Substituted imidazopyridazines and pyrrolopyrimidines as lipid kinase inhibitors” (priority 2007, published 2010).

Legend:
Type in all cases: biochemical
PI3K gamma = target: T1, PI3K gamma (Homo sapiens, UniProt P48736); assay: PI3 kinase assay (Kinase-Glo luminescence), PI3K gamma; details: Enzymatic Data; read-out: PI3K gamma IC50 [umol]
T1 construct: PI3Kγ BV-950 p110g(D144aa)-C-Term His Tag; His tag (C); made in house; host or cells: construct from the Roger Williams lab (MRC LMB) in pVL1393; baculovirus; Tn5 (Trichoplusia ni) or TiniPro insect cells
T1 sequence (P48736 144-1102 limits assumed): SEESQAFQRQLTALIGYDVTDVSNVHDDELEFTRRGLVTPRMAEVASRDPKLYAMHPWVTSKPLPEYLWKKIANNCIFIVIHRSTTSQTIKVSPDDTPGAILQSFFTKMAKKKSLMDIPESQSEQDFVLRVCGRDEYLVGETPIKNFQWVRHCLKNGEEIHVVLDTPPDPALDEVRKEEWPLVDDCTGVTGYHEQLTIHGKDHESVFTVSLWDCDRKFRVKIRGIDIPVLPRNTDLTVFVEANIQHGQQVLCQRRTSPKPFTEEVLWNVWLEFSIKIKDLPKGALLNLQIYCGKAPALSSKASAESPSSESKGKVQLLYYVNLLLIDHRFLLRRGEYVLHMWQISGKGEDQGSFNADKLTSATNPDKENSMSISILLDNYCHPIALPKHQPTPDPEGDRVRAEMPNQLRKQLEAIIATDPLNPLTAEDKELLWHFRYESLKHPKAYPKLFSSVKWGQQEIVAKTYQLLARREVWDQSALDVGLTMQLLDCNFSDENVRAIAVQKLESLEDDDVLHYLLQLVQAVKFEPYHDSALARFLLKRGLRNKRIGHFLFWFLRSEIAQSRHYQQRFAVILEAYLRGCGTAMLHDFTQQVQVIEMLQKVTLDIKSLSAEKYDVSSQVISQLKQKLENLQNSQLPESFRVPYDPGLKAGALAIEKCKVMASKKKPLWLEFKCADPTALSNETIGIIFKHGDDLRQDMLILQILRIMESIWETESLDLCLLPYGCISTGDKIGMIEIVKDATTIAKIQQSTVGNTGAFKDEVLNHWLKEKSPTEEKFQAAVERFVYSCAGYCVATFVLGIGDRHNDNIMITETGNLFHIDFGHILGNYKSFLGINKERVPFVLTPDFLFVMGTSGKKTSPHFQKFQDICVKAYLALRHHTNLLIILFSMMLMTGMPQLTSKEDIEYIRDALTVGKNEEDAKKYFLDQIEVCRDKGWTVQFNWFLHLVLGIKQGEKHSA
Method in brief: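 Kinase-Glo luminescence assay with 1 μM ATP and 10 μg/mL phosphatidylinositol (final), reaction started by ATP addition. IC50 from 4-parameter logistic fit of percent inhibition at 8 compound concentrations (usually 10 down to 0.003 […]).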

PI3K beta = target: T2, PI3K beta (Homo sapiens, UniProt P42338); assay: PI3 kinase assay (Kinase-Glo luminescence), PI3K beta; details: Enzymatic Data; read-out: PI3K beta IC50 [umol]
T2 construct: for the full-length p110-b subunit are generated and fused by overlapping PCR; His tag (C); made in house; host or cells: baculovirus; Tn5 (Trichoplusia ni) or TiniPro insect cells
T2 sequence (P42338 with tags, fused parts or gaps limits assumed): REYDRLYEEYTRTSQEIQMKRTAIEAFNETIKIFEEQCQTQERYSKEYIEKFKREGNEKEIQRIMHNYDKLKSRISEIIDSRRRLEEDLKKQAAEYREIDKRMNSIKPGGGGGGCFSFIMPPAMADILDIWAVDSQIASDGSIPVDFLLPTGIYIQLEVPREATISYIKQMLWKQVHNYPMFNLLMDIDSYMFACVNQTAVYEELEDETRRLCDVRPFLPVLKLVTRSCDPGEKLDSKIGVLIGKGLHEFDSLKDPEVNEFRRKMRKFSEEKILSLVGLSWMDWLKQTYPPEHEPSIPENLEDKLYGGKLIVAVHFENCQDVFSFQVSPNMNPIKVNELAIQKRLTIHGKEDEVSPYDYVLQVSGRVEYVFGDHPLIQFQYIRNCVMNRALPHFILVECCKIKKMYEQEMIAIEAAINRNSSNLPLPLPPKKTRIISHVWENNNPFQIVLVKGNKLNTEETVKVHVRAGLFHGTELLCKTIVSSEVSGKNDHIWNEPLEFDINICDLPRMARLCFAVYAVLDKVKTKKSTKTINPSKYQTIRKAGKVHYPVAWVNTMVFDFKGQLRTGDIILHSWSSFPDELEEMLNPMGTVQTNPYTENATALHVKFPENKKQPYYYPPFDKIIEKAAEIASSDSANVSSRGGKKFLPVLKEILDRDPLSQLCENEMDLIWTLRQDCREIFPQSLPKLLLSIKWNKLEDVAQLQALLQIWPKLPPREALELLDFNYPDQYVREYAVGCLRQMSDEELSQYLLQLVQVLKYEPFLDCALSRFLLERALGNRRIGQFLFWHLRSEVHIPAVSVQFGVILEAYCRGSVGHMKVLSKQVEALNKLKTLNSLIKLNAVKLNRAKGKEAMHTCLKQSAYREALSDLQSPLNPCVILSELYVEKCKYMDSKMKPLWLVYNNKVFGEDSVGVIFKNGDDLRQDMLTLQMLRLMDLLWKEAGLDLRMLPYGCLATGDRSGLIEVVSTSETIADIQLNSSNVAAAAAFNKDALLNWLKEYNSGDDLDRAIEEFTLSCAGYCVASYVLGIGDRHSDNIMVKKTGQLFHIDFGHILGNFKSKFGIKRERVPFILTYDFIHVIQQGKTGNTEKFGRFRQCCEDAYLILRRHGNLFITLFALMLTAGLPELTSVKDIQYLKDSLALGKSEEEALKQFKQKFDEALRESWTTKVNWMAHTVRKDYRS
Method in brief: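 PI3Kβ (25 nM, BV-949) with 10 μg/mL phosphatidylinositol in Tris pH 7.5/MgCl2/NaCl/CHAPS/DTT buffer; reaction started with 1 μM ATP, 60 min at room temperature. ATP depletion read by Kinase-Glo luminescence; 8-point dilutions, IC50 by four-parameter logistic fit.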

PI3K delta = target: T3, PI3K delta (Homo sapiens, UniProt O00329); assay: PI3 kinase assay (Kinase-Glo luminescence), PI3K delta; details: Enzymatic Data; read-out: PI3K delta IC50 [umol]
T3 construct: for the full-length p110-d subunit are generated and fused by overlapping PCR; His tag (C); made in house; host or cells: baculovirus; Tn5 (Trichoplusia ni) or TiniPro insect cells
T3 sequence (O00329 with tags, fused parts or gaps limits assumed): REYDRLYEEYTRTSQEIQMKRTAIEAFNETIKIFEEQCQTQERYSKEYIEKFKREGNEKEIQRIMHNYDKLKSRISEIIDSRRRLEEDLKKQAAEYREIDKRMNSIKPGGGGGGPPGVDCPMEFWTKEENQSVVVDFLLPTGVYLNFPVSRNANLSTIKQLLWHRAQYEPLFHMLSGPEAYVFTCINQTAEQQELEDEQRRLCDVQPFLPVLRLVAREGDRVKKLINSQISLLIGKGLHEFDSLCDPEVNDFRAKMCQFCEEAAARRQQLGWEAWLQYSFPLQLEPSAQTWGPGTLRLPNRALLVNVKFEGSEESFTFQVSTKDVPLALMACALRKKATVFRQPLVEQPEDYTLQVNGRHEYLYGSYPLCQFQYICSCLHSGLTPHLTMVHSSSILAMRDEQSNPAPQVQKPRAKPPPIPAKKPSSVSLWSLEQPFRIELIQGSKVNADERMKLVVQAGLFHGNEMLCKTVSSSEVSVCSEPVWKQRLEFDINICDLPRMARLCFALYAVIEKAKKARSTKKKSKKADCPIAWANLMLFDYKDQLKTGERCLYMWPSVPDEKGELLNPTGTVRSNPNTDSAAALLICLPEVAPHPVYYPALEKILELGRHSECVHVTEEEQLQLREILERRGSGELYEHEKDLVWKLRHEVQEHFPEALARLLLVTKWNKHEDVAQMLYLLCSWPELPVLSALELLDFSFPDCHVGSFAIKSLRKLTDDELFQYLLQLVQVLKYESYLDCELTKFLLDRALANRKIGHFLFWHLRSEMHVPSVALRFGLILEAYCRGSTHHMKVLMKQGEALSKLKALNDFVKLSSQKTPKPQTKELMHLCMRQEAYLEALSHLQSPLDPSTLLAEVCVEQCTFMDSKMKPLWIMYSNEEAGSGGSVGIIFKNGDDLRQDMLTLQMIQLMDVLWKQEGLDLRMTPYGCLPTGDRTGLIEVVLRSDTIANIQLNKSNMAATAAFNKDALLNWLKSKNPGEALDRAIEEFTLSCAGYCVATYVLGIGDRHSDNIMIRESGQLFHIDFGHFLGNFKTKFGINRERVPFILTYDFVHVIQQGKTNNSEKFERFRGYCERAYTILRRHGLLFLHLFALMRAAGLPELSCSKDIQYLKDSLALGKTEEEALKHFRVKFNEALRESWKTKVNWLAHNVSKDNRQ
Method in brief: (§1)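 Recombinant PI3K constructs (alfa 10 nM, delta 10 nM, gamma 150 nM) with 1 μM ATP and 10 μg/mL phosphatidylinositol in Tris pH 7.5, MgCl2, NaCl, CHAPS, DTT; 60 min (alfa, delta) or 120 min (gamma) at room temperature. ATP depletion read by Kinase-Glo luminescence; IC50 from 4-parameter logistic fit over 8 concentrations.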

PI3K alfa = target: T4, PI3K alfa (Homo sapiens, UniProt P42336); assay: PI3 kinase assay (Kinase-Glo luminescence), PI3K alfa; details: Enzymatic Data; read-out: PI3K alfa IC50 [umol]
T4 construct: for the p110-a subunit (with a deletion of the first 20 amino acids); His tag (C); made in house; host or cells: baculovirus; Tn5 (Trichoplusia ni) or TiniPro insect cells
T4 sequence (P42336 with tags, fused parts or gaps limits assumed): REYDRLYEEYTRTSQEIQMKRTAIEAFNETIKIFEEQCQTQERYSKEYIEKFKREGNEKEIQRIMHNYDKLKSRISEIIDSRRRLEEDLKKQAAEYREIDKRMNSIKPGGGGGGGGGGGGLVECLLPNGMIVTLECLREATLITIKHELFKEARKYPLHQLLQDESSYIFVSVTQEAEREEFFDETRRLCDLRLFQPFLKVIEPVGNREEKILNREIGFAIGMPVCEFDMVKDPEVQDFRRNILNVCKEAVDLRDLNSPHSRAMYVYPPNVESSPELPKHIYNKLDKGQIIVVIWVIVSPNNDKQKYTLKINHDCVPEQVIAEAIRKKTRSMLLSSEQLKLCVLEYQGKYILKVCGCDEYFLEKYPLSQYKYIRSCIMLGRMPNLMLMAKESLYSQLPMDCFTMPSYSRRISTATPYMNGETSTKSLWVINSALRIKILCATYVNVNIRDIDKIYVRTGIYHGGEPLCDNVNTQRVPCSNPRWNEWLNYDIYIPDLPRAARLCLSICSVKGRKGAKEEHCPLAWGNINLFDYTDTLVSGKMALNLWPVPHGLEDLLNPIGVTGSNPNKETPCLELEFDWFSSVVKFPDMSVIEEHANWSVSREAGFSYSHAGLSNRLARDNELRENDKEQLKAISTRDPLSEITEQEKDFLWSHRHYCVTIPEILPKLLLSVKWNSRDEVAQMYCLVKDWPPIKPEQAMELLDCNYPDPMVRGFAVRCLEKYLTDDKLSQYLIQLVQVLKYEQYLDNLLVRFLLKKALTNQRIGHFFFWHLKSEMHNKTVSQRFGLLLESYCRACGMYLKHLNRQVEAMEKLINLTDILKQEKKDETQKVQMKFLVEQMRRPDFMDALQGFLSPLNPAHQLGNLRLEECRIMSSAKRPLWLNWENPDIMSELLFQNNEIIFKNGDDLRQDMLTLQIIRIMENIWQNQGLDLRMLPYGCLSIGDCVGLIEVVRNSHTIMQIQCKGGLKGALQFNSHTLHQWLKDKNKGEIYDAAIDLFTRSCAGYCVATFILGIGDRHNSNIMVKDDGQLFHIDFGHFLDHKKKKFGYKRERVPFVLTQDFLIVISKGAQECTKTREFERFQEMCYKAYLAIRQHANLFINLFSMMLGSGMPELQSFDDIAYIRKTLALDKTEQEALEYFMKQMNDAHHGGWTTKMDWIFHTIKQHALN
Method in brief: as §1

Row | Compound | IC50 (PI3K gamma) | IC50 (PI3K beta) | IC50 (PI3K delta) | IC50 (PI3K alfa)
1 | CC(=O)NCCn1cc(-c2ccc3ncc(-c4cnc(N)c(C(F)(F)F)c4)n3n2)ccc1=O [Example 76, N-(2-{5-[3-(6-Amino-5-trifluoro-methyl-pyridin-3-yl)-imidazo [1,2-b]pyridazin-6-yl]-2-oxo-2H-pyridin-1-yl}-ethyl)-acetamide] | 3220 nM | 670 nM | 151 nM | 158 nM
2 | CC(=O)N1CCN(C(=O)c2ccc(-c3cnc4ccc(-c5cnc(N)c(C(F)(F)F)c5)nn34)cc2)CC1 [Example 82, 1-(4-{4-[6-(6-Amino-5-trifIuoro-methyl-pyridin-3-yl)-imidazo [1,2-b]pyridazin-3-yl]-benzoyl}-piperazin-1-yl)-ethanone] | 526 nM | 169 nM | 7 nM | 18 nM
3 | O=C(NCCCOc1ccc(-c2ccc3ncc(-c4cncc(C(F)(F)F)c4)n3n2)cc1)C1CC1 [Example 130, Cyclo-propane-carboxylic acid (3-{4-[3-(5-trifluoro-methyl-pyridin-3-yl)-imidazo [1,2-b]pyridazin-6-yl]-phenoxy}-propyl)-amide] | 1300 nM | > 9100 nM | 576 nM | 347 nM
4 | Nc1ncc(-c2ccc3ncc(-c4ccc(C(=O)N5CCN(CCO)CC5)c(F)c4)n3n2)cc1C(F)(F)F [Example 113, {4-[6-(6-Amino-5-trifluoro-methyl-pyridin-3-yl)-imidazo [1,2-b]pyridazin-3-yl]-2-fluoro-phenyl}-[4-(2-hydroxy-ethyl)-piperazin-1-yl]-methanone] | 555 nM | 68 nM | 13 nM | 11 nM
5 | COc1cc(-c2cnc3ccc(-c4cnc(N)c(C(F)(F)F)c4)nn23)ccc1C(=O)N1CCN(Cc2cccnc2)CC1 [Example 117, {4-[6-(6-Amino-5-trifluoro-methyl-pyridin-3-yl)-imidazo [1,2-b]pyridazin-3-yl]-2-methoxy-phenyl}-(4-pyridin-3-ylmethyl-piperazin-1-yl)-methanone] | 446 nM | 217 nM | 10 nM | 9 nM
6 | NCCCOc1ccc(-c2ccc3ncc(-c4cnc(N)c(C(F)(F)F)c4)n3n2)cc1OC(F)(F)F [Example 63, 5-{6-[4-(3-Amino-propoxy)-3-trifluoro-methoxy-phenyl]-imidazo [1,2-b]pyridazin-3-yl}-3-trifluoro-methyl-pyridin-2-ylamine] | 39 nM | 176 nM | 180 nM | 153 nM
7 | COc1ccc(-c2ccc3ncc(-c4cncc(C(F)(F)F)c4)n3n2)cc1OC [Example 53, 6-(3,4-Di-methoxy-phenyl)-3-(5-trifluoro-methyl-pyridin-3-yl)-imidazo [1,2-b] pyridazine] | 1080 nM | 1240 nM | 401 nM | 275 nM
8 | O=C1CCCN1CCCOc1ccc(-c2ccc3ncc(-c4cnc5[nH]ccc5c4)n3n2)cc1F [Example 91, 1-(3-{2-Fluoro-4-[3-(1H-pyrrolo [2,3-b]pyridin-5-yl)-imidazo [1,2-b]pyridazin-6-yl]-phenoxy}-propyl)-pyrrolidin-2-one] | 6540 nM | 7620 nM | 530 nM | 155 nM
9 | Nc1ncc(-c2cnc3ccc(-c4ccc(OCCn5cccn5)cc4)nn23)cc1C(F)(F)F [Example 92, 5-{6-[4-(2-Pyrazol-1-yl-ethoxy)-phenyl]-imidazo [1,2-b]pyridazin-3-yl}-3-trifluoro-methyl-pyridin-2-ylamine] | > 9100 nM | 4110 nM | 1240 nM | 573 nM
10 | Nc1ncc(-c2ccc3ncc(-c4ccc(C(=O)NCCCN5CCOCC5)cc4)n3n2)cc1C(F)(F)F [Example 81, 4-[6-(6-Amino-5-trifluoromethyl-pyridin-3-yl)-imidazo [1,2-b]pyridazin-3-yl]-N-(3-morpholin-4-yl-propyl)-benzamide] | 638 nM | 82 nM | 13 nM | 21 nM
11 | COc1cc(-c2cnc3ccc(-c4cnc(N)c(C(F)(F)F)c4)nn23)ccc1C(=O)N1CCN(CCN2CCOCC2)CC1 [Example 118, {4-[6-(6-Amino-5-trifluoro-methyl-pyridin-3-yl)-imidazo [1,2-b]pyridazin-3-yl]-2-methoxy-phenyl}-[4-(2-morpholin-4-yl-ethyl)-piperazin-1-yl]-methanone] | 405 nM | 178 nM | 6 nM | 8 nM
12 | NCCn1cc(-c2ccc3ncc(-c4cnc(N)c(C(F)(F)F)c4)n3n2)ccc1=O [Example 70, 1-(2-Amino-ethyl)-5-[3-(6-amino-5-trifluoro-methyl-pyridin-3-yl)-imidazo [1,2-b]pyridazin-6-yl]-1H-pyridin-2-one] | 491 nM | 49 nM | 63 nM | 58 nM
13 | CN(C)CCN1CCN(C(=O)c2ccc(-c3cnc4ccc(-c5cnc(N)c(C(F)(F)F)c5)nn34)cc2)CC1 [Example 132, {4-[6-(6-Amino-5-trifluoro-methyl-pyridin-3-yl)-imidazo [1,2-b]pyridazin-3-yl]-phenyl}-[4-(2-dimethyl-amino-ethyl)-piperazin-1-yl]-methanone] | 2020 nM | 1260 nM | 52 nM | 26 nM
14 | CC(=O)c1ccc(CNC(=O)c2ccc(-c3cnc4ccc(-c5cnc(N)c(C(F)(F)F)c5)nn34)cc2)cc1 [Example 84, N-(4-Acetyl-benzyl)-4-[6-(6-amino-5-trifluoromethyl-pyridin-3-yl)-imidazo [1,2-b]pyridazin-3-yl]-benzamide] | 3240 nM | 5560 nM | 308 nM | 87 nM
15 | CC(C)C(=O)NCCCOc1ccc(-c2ccc3ncc(-c4cnc(N)c(C(F)(F)F)c4)n3n2)cc1 [Example 57, N-(3-{4-[3-(6-Amino-5-trifluoro-methyl-pyridin-3-yl)-imidazo [1,2-b]pyridazin-6-yl]-phenoxy}-propyl)-isobutyr-amide] | 1040 nM | 3370 nM | 384 nM | 23 nM
16 | COc1cc(-c2ccc3ncc(-c4cnc5[nH]ccc5c4)n3n2)ccc1OCCN1CCCC1=O [Example 110, 1-(2-{2-Methoxy-4-[3-(1H-pyrrolo [2,3-b]pyridin-5-yl)-imidazo [1,2-b]pyridazin-6-yl]-phenoxy}-ethyl)-pyrrolidin-2-one] | 1370 nM | 1180 nM | 77 nM | 40 nM
17 | COc1cc(-c2ccc3ncc(-c4cnc(N)c(C(F)(F)F)c4)n3n2)ccc1OC1CCNCC1 [Example 166, 5-{6-(3-Methoxy-4-(piperidin-4-yloxy)-phenyl]-imidazo [1,2-b]pyridazin-3-yl}-3-trifluoro-methyl-pyridin-2-ylamine] | 556 nM | 204 nM | 41 nM | 50 nM
18 | Nc1ncc(-c2cnc3ccc(-c4ccc(OC5CCNCC5)cc4)nn23)cc1C(F)(F)F [Example 165, 5-{6-[4-(Piperidin-4-yloxy)-phenyl]-imidazo [1,2-b]pyridazin-3-yl}-3-trifluoro-methyl-pyridin-2-ylamine] | 371 nM | 355 nM | 207 nM | 131 nM
19 | COc1ccc(-c2cnc3ccc(-c4cnc5[nH]ccc5c4)nn23)cc1OC [Example 42, 3-(3,4-Dimethoxy-phenyl)-6-(1H-pyrrolo[2,3-b]pyridin-5-yl)-imidazo [1,2-b] pyridazine] | > 9100 nM | > 9100 nM | 624 nM | 635 nM
20 | NCCOc1ccc(-c2ccc3ncc(-c4cnc(N)c(C(F)(F)F)c4)n3n2)cc1 [Example 74, 5-{6-[4-(2-Amino-ethoxy)-phenyl]-imidazo [1,2-b]pyridazin-3-yl}-3-trifluoro-methyl-pyridin-2-ylamine] | 1430 nM | 147 nM | 162 nM | 159 nM
21 | COc1cccc(-c2ccc3ncc(-c4cnc5[nH]ccc5c4)n3n2)c1 [Example 78, 6-(3-Methoxy-phenyl)-3-{1H-pyrrolo [2.3-b]pyridin-5-yl)-imidazo [1,2-b] pyridazine] | 4040 nM | 2060 nM | 1060 nM | 130 nM
22 | Nc1ncc(-c2ccc3ncc(-c4ccc(S(=O)(=O)CCN5CCOCC5)cc4)n3n2)cc1C(F)(F)F [Example 105, 5-{3-[4-(2-Morpholin-4-yl-ethane-sulfonyl)-phenyl]-imidazo [1,2-b]pyridazin-6-yl}-3-trifluoro-methyl-pyridin-2-ylamine] | 362 nM | 463 nM | 18 nM | 24 nM
